In general, IC50 refers to the midpoint of a concentration-inhibition curve. A low value points to greater potency in that assay.

IC50 and Activity data for 4 compounds are collected here from ChEMBL document CHEMBL1136944, “Serratezomines D and E, new Lycopodium alkaloids from Lycopodium serratum var. serratum” (Bioorg Med Chem Lett, 2009).

Active and inactive are the calls of the source. No cut-off for these calls is given here.

The target of experiment [1] is Acetylcholinesterase (Electrophorus electricus, UniProt O42275). Kind of experiment: (§1) Inhibition of Electrophorus electricus acetylcholinesterase by rapid colorimetric determination.
Acetylcholinesterase, sequence (O42275 whole entry): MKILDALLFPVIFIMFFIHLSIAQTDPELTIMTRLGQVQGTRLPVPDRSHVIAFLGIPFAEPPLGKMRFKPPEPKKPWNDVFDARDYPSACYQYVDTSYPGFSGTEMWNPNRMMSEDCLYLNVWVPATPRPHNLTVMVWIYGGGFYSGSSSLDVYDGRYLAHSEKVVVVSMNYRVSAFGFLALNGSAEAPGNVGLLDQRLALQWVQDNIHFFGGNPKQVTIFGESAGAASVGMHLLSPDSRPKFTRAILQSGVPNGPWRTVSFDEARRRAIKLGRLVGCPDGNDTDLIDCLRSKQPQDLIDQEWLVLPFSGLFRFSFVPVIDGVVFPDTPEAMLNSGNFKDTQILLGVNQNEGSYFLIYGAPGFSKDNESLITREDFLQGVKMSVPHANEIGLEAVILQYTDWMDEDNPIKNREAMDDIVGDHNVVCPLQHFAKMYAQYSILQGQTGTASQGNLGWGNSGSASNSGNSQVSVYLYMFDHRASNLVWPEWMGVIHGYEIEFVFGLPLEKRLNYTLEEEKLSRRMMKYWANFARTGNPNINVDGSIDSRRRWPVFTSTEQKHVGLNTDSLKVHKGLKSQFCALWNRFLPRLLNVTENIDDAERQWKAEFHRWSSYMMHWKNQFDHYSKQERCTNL
In experiment [2] the target is Acetylcholinesterase (Electrophorus electricus) (UniProt O42275). The description is as §1.
Acetylcholinesterase (Electrophorus electricus), sequence (O42275 24-633 limits assumed): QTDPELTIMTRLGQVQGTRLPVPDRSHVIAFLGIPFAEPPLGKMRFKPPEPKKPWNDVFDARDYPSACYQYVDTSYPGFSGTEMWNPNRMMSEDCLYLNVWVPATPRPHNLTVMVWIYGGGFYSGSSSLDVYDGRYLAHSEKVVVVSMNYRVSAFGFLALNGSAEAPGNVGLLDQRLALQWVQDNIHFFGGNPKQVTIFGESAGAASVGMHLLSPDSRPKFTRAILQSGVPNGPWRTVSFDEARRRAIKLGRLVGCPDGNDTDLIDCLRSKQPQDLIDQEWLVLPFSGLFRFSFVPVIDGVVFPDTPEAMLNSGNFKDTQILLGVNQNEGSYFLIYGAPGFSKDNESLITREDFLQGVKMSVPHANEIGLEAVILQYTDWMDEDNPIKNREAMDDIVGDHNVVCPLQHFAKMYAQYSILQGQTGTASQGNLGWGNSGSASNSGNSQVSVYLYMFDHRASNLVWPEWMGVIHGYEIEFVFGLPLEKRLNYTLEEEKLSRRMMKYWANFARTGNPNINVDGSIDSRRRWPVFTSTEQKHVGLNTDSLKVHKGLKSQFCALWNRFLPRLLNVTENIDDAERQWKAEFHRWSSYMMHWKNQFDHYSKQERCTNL

`C[C@@H]1C[C@@H]2C[C@H]3N[C@H](C[C@H]4C[C@@H](C)C[C@@H]5[C@@H]4CCCN5C=O)CC[C@@H]3[C@H]3C[C@H]2[C@@H](C1)N(C)C3` [SERRATEZOMINE D] registered an IC50 in experiment [1] of 600 µM.

Regarding `CC(=O)N1CCC[C@@H]2[C@@H](C[C@H]3CC[C@@H]4[C@H]5C[C@@H]6[C@@H](C[C@@H](C)C[C@@H]6N(C)C5)C[C@H]4N3)C[C@H](C)C[C@@H]21`, the result in experiment [2] was inactive.

Consider `CC(=O)N1CCC[C@H]2[C@@H](C[C@@H]3CC[C@@H]4[C@@H]5C[C@@H]6[C@@H](C[C@@H](C)C[C@@H]6N(C)C5)C[C@H]4N3)C[C@H](C)C[C@H]21`, for which the result in experiment [2] was inactive. Turning to `CC(=O)N1CCC[C@H]2[C@@H](C[C@H]3CC[C@]4(O)[C@@H]5C[C@@H]6[C@@H](C[C@@H](C)C[C@@H]6N(C)C5)C[C@H]4N3)C[C@H](C)C[C@H]21`, the outcome in experiment [2] was inactive.
